Read-outs that look alike come from different tables or passages of the source.

Holding throughout (assay): SelectScreen kinase assay
In one assay the target is BMPR1A (ALK3) (Homo sapiens, UniProt P36894). The following applies: for Inhibition at 1 µM (%): BMPR1A (ALK3), LanthaScreen Binding. Background: TR-FRET usually uses a lanthanide donor and a delayed reading to cut background.
For another assay, the target named is CAMK2G (CaMKII gamma) (Homo sapiens, UniProt Q13555).
Another assay concerns the target CDK14 (PFTK1)/cyclin Y (Homo sapiens, UniProt O94921).
The next assay has as its target T1, IRAK3 (Homo sapiens, UniProt Q9Y616).
T1 sequence (Q9Y616 1-596): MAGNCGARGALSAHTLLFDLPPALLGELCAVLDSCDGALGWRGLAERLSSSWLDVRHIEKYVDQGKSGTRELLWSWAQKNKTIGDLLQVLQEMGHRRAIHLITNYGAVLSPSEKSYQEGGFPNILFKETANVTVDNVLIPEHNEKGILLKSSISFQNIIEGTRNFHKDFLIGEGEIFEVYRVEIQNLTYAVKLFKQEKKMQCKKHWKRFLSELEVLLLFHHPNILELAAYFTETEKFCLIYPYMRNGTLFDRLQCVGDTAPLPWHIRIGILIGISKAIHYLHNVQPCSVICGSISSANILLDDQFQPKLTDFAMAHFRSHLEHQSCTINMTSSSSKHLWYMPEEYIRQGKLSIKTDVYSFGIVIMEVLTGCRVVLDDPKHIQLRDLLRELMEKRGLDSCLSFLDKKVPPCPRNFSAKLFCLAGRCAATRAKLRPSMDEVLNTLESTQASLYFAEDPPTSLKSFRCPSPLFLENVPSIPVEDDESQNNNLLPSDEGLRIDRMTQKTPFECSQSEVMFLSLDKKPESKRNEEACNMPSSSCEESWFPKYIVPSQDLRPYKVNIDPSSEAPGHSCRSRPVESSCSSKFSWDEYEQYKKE

Another assay concerns the target T2, MAPK13 (p38 delta) (Homo sapiens, UniProt O15264).
T2 sequence (O15264 1-365): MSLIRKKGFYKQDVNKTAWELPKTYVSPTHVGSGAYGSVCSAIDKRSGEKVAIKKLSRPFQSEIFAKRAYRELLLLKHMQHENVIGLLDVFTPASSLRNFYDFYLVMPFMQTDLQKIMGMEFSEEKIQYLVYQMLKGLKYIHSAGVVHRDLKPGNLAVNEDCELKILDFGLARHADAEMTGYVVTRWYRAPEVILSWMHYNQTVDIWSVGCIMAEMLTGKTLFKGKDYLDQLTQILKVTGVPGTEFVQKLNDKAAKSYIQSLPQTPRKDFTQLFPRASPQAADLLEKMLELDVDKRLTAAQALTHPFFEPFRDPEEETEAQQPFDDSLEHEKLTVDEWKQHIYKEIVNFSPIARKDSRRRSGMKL

A further assay addresses T3, NUAK2 (Homo sapiens, UniProt Q9H093).
T3 sequence (Q9H093 1-628): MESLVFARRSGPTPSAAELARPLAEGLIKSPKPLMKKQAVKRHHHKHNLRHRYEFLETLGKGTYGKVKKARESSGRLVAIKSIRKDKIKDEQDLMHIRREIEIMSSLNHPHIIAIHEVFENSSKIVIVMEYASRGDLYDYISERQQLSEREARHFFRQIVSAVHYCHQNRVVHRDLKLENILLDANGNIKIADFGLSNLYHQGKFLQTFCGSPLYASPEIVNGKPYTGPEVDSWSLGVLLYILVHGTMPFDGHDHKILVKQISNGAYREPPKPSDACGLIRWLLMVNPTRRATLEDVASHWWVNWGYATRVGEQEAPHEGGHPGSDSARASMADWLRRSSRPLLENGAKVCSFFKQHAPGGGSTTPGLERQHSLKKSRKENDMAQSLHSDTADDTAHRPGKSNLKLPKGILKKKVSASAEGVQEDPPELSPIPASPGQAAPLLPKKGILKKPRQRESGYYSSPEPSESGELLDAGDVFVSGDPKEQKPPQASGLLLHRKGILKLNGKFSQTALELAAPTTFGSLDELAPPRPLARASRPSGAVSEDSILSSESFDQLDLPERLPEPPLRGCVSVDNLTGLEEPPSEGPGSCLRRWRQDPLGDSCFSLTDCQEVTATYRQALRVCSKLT

A further assay deals with PRKACB (PRKAC beta) (Homo sapiens, UniProt P22694). The following applies: for Inhibition at 1 µM (%): PRKACB (PRKAC beta), LanthaScreen Binding.
Another assay addresses T4, TGFBR1 (ALK5) (Homo sapiens, UniProt P36897).
T4 sequence (P36897 34-503): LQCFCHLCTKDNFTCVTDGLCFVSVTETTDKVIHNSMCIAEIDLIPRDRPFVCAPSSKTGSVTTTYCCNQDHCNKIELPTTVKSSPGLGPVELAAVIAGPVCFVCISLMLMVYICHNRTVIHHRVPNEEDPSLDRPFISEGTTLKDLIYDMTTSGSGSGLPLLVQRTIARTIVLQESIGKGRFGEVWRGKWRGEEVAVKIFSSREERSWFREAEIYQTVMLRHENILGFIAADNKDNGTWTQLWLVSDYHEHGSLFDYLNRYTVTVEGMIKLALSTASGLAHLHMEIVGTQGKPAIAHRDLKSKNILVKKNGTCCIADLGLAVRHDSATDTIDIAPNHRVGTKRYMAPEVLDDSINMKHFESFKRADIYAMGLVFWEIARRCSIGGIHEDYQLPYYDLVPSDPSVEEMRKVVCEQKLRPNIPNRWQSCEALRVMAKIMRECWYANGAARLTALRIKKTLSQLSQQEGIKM
The following applies: for Inhibition at 1 µM (%): LanthaScreen Binding.

Where [1] appears, read: 1 h, 1 μM WEL028, 1 h preincubation.

Chain of BMPR1A (ALK3) (P36894 24-532): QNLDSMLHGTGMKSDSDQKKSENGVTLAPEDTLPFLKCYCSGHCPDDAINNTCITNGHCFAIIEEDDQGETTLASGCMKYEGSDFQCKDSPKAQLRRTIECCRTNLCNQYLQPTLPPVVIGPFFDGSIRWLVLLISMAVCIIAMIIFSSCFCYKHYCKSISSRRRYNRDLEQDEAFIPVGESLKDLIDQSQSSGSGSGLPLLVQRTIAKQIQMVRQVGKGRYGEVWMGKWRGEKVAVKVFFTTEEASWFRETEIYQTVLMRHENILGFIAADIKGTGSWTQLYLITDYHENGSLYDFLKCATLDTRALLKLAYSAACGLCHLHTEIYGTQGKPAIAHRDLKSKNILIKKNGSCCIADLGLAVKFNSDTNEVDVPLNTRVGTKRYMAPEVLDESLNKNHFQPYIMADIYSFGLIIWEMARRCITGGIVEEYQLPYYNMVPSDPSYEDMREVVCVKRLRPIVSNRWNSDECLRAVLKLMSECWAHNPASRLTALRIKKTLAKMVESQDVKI
Chain of CDK14 (PFTK1)/cyclin Y (O94921 whole entry): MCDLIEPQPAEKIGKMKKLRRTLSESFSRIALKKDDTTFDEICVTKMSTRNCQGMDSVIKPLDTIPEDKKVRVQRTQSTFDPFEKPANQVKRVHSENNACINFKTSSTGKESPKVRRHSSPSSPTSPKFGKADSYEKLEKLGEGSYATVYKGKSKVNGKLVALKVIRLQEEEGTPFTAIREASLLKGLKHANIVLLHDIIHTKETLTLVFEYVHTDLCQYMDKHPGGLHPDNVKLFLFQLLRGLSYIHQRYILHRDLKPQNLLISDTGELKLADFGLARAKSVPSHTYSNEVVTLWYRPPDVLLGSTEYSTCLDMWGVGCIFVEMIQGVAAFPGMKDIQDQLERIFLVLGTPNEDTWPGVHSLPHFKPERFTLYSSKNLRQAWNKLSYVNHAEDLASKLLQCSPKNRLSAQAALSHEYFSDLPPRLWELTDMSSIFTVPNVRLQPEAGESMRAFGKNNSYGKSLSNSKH
Chain of CDK14 (PFTK1)/cyclin Y (Q8ND76 whole entry partner): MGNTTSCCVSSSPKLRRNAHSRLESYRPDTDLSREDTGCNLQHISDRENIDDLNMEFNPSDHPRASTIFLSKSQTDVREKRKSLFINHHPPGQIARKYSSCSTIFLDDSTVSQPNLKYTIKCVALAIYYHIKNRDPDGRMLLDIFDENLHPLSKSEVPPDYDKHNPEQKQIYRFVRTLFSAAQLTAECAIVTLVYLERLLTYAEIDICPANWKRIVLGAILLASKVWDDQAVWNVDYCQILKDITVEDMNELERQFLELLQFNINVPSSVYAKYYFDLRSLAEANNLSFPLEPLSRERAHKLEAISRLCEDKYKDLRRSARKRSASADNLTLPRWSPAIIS
Chain of CAMK2G (CaMKII gamma) (Q13555 whole entry): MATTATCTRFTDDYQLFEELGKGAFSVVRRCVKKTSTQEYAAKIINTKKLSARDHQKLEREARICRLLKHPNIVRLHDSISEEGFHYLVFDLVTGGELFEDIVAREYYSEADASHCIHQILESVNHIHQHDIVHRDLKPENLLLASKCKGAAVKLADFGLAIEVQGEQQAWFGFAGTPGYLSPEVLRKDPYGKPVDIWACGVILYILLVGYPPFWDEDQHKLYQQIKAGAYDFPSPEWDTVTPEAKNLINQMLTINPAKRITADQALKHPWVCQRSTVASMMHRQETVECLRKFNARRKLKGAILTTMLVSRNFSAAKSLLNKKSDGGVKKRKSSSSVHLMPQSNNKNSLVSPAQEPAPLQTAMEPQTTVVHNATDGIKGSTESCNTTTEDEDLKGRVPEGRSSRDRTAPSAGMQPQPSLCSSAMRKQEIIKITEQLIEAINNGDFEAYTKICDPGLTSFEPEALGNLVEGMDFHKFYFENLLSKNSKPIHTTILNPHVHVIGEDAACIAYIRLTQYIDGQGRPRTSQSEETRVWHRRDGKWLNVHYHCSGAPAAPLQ
Method for BMPR1A (ALK3): (§1) Selectivity profiling assays were performed by the Invitrogen SelectScreen™ Services. […] The concentration of ATP was selected to be equal to the KM, unless indicated otherwise.
Method for CAMK2G (CaMKII gamma): as §1
Method for CDK14 (PFTK1)/cyclin Y: as §1
Method for IRAK3: as §1
Method for MAPK13 (p38 delta): as §1
Method for NUAK2: as §1
Method for PRKACB (PRKAC beta): as §1
Method for TGFBR1 (ALK5): as §1

As usually defined, the Inhibition is the relative decrease from the control value, in per cent. As to `C#CCOc1ccc(Nc2ncc(Cl)c(Nc3ccccc3NC(=O)C=C)n2)c(OC)c1` [Compound 6], the inhibition at 1 µM was -2% against BMPR1A (ALK3) (setting [1]); 3% against CAMK2G (CaMKII gamma) (setting [1]); 56% against IRAK3 (setting [1]); 55% at IRAK3 (read-out: Inhibition at 1 µM (%), IRAK3, 1 µM, LanthaScreen Binding); 5% against MAPK13 (p38 delta) (setting [1]); 4% at MAPK13 (p38 delta) (read-out: Inhibition at 1 µM (%), MAPK13 (p38 delta), 1 µM, ZLYTE, ATP Km app). The inhibition at 1 µM on NUAK2 (read-out: Inhibition at 1 µM (%), NUAK2, 1 µM, LanthaScreen Binding) stood at 18%; against PRKACB (PRKAC beta) (setting [1]), 8%; against TGFBR1 (ALK5) (setting [1]), 6%. The “Inhibition at 1 µM (%)” value on BMPR1A (ALK3) was 2%; on BMPR1A (ALK3) (listed as WEL028, 1 µM) it was -6%; at CAMK2G (CaMKII gamma) (CAMK2G (CaMKII gamma), 1 µM, LanthaScreen Binding), 13%; on CDK14 (PFTK1)/cyclin Y (CDK14 (PFTK1)/cyclin Y, 1 µM, LanthaScreen Binding) it was -14%; at IRAK3 (IRAK3, 1 µM, LanthaScreen Binding, listed as WEL028, 1 µM) it was 58%; on MAPK13 (p38 delta) (MAPK13 (p38 delta), 1 µM, ZLYTE, ATP Km app, listed as WEL028, 1 µM), 6%. In addition, the “Inhibition at 1 µM (%)” value on NUAK2 (NUAK2, 1 µM, LanthaScreen Binding, listed as WEL028, 1 µM) was determined as 30%; at PRKACB (PRKAC beta), 12%; at PRKACB (PRKAC beta) (listed as WEL028, 1 µM), 5%; at TGFBR1 (ALK5), 3%; on TGFBR1 (ALK5) (listed as WEL028, 1 µM) it was 8%. Also, the “Inhibition (%)” value was -7% on CDK14 (PFTK1)/cyclin Y (1 μM WEL028, 1 h preincubation) and 24% on NUAK2 (1 μM WEL028, 1 h preincubation).

Values taken from paper PMC7316778 (Nature Communications, 2020).
